Results published in ChEMBL document CHEMBL3421624, “Design and Synthesis of Antitumor Heck-Coupled Sclareol Analogues: Modulation of BH3 Family Members by SS-12 in Autophagy and Apoptotic Cell Death” (J Med Chem, 2015).
Calls of active or inactive are those of the source. No cut-off for these calls is given here.

Experiments:
[1] = tested on: HeLa; assay: Cytotoxicity against human HeLa cells after 48 hrs by MTT assay; format: functional, cell-based
[2] = tested on: A549; assay: Cytotoxicity against human A549 cells after 48 hrs by MTT assay; format: functional, cell-based; conditions: A549, 48 h
[3] = Cytotoxicity against human PC3 cells after 48 hrs by MTT assay; format: functional, cell-based; conditions: PC-3, 48 h
[4] = tested on: PC-3; assay: Induction of autophagy in human PC3 cells assessed as increase in punctate EGFP-LC3 pattern in autophagosomes at 100 nM after 24 hrs by fluorescence microscopy; format: functional, cell-based
[5] = tested on: PC-3; assay: Induction of autophagy in human PC3 cells assessed as increase LC3 intracellular localization at 100 nM after 24 hrs by immunocytochemistry; format: functional, cell-based
[6] = tested on: PC-3; assay: Induction of autophagy in human PC3 cells at 100 to 300 nM after 24 hrs by MDC staining based fluorescence microscopy; format: functional, cell-based
[7] = tested on: PC-3; assay: Induction of autophagy in human PC3 cells at 100 to 300 nM after 24 hrs by acridine orange staining based fluorescence microscopy; format: functional
[8] = tested on: PC-3; assay: Induction of apoptosis in human PC3 cells assessed as caspase-3 cleavage at 300 nM after 24 hrs by Western blotting method; format: functional, cell-based
[9] = tested on: PC-3; assay: Effect on SQSTM1/P62 protein expression in human PC3 cells at 0.2 to 0.3 uM after 24 hrs by immunoblotting method; format: functional, cell-based
[10] = tested on: PC-3; assay: Induction of autophagy in human PC3 cells at 100 to 300 nM after 24 hrs; format: functional, cell-based
[11] = tested on: PC-3; assay: Effect on Beclin-1 protein expression in human PC3 cells at 0.2 to 0.3 uM after 24 hrs by immunoblotting method; format: functional, cell-based
[12] = tested on: PC-3; assay: Effect on MAP1LC3 I/II protein expression in human PC3 cells at 0.2 to 0.3 uM after 24 hrs by immunoblotting method; format: functional, cell-based
[13] = tested on: PC-3; assay: Inhibition of Akt S473 phosphorylation in human PC3 cells at 0.1 to 0.3 uM after 24 hrs by Western blotting method; format: cell-based
[14] = tested on: PC-3; assay: Induction of apoptosis in human PC3 cells at 100 to 300 nM after 24 hrs; format: functional, cell-based
[15] = tested on: PC-3; assay: Inhibition of Akt in human PC3 cells assessed as reduction in mTOR S2448 phosphorylation at 0.1 to 0.3 uM after 24 hrs by Western blotting method; format: cell-based
[16] = tested on: PC-3; assay: Induction of autophagy in human PC3 cells assessed as increase in punctate EGFP-LC3 pattern in autophagosomes at 300 nM after 24 hrs by fluorescence microscopy; format: functional, cell-based

Compound	IC50 [1]	IC50 [2]	IC50 [3]	further results
Cc1cccc(C)c1/C=C/[C@](C)(O)CC[C@@H]1[C@@]2(C)CCCC(C)(C)[C@@H]2CC[C@@]1(C)O	3.46 µM	3.34 µM	278 nM	
COc1cccc(OC)c1/C=C/[C@](C)(O)CC[C@@H]1[C@@]2(C)CCCC(C)(C)[C@@H]2CC[C@@]1(C)O	48.2 µM	42 µM	4000 nM	
CO[C@H]1C[C@@H]2CC[C@@H](C)[C@@](O)(O2)C(=O)C(=O)N2CCCC[C@H]2C(=O)O[C@H]([C@H](C)C[C@@H]2CC[C@@H](O)[C@H](OC)C2)CC(=O)[C@H](C)/C=C(\C)[C@@H](O)[C@@H](OC)C(=O)[C@H](C)C[C@H](C)/C=C/C=C/C=C/1C				Activity [4]: inactive; Activity [5]: inactive
CC1(C)CCC[C@]2(C)[C@@H](CC[C@@](C)(O)/C=C/c3cncc4ccccc34)[C@](C)(O)CC[C@@H]12	46 µM	45.7 µM	3900 nM	
CC1(C)CCC[C@]2(C)[C@@H](CC[C@@](C)(O)/C=C/c3ccc(C(=O)O)cc3)[C@](C)(O)CC[C@@H]12	45.4 µM	44.3 µM	102 nM	Activity [6]: Active; Activity [7]: Active
C=C[C@](C)(O)CC[C@@H]1[C@@]2(C)CCCC(C)(C)[C@@H]2CC[C@@]1(C)O [SCLAREOL]	3.35 µM	3.21 µM	105 nM	Activity [8]: Active; Activity [9]: inactive; Activity [10]: inactive; Activity [11]: inactive; Activity [12]: inactive; inhibition [13]: Active; Activity [7]: <=5%; Activity [14]: inactive; inhibition [15]: Active
CC1(C)CCC[C@]2(C)[C@@H](CC[C@@](C)(O)/C=C/c3c4ccccc4c(Br)c4ccccc34)[C@](C)(O)CC[C@@H]12	46 µM	44.9 µM	301 nM	
CC1(C)CCC[C@]2(C)[C@@H](CC[C@@](C)(O)/C=C/c3cccc([N+](=O)[O-])c3)[C@](C)(O)CC[C@@H]12	3.38 µM	3.4 µM	153 nM	Activity [6]: Active; Activity [7]: Active
CC1(C)CCC[C@]2(C)[C@@H](CC[C@@](C)(O)/C=C/c3ccc(Br)cc3)[C@](C)(O)CC[C@@H]12	45.9 µM	43.2 µM	41300 nM	
Cc1cccc(/C=C/[C@](C)(O)CC[C@@H]2[C@@]3(C)CCCC(C)(C)[C@@H]3CC[C@@]2(C)O)c1C	3.7 µM	3.8 µM	3500 nM	
Cc1ccc(C)c(/C=C/[C@](C)(O)CC[C@@H]2[C@@]3(C)CCCC(C)(C)[C@@H]3CC[C@@]2(C)O)c1	3.38 µM	3.32 µM	176 nM	Activity [6]: Active; Activity [7]: Active
CO/C1=C\C(C)=C\[C@@H](C)[C@@H](O)[C@@H](C)C/C(C)=C/C=C/[C@H](OC)[C@@H]([C@@H](C)[C@@H](O)[C@H](C)[C@@]2(O)C[C@@H](O)[C@H](C)[C@@H](C(C)C)O2)OC1=O				Activity [16]: inactive
CC1(C)CCC[C@]2(C)[C@@H](CC[C@@](C)(O)/C=C/c3ccc(Cl)nc3)[C@](C)(O)CC[C@@H]12	3.68 µM	3.28 µM	275 nM	
CC1(C)CCC[C@]2(C)[C@@H](CC[C@@](C)(O)/C=C/c3ccc(Oc4ccccc4)cc3)[C@](C)(O)CC[C@@H]12	3.48 µM	3.2 µM	268 nM	
CC(C)(C)c1ccc(/C=C/[C@](C)(O)CC[C@@H]2[C@@]3(C)CCCC(C)(C)[C@@H]3CC[C@@]2(C)O)cc1	48.5 µM	45 µM	3800 nM	
COc1cccc(/C=C/[C@](C)(O)CC[C@@H]2[C@@]3(C)CCCC(C)(C)[C@@H]3CC[C@@]2(C)O)c1OC	3.88 µM	3.28 µM	2900 nM	
CN[C@@H]1C[C@H]2O[C@@](C)([C@@H]1OC)n1c3ccccc3c3c4c(c5c6ccccc6n2c5c31)C(=O)NC4 [STAUROSPORINE]			31 nM	
CC1(C)CCC[C@]2(C)[C@@H](CC[C@@](C)(O)/C=C/c3ccccc3)[C@](C)(O)CC[C@@H]12	3.32 µM	3.15 µM	121 nM	Activity [6]: Active; Activity [7]: Active
